From US8652771B2, “Measurement of succinate in urine samples as a biomarker of kidney damage in diabetic subjects” (University of Souther California, priority 2008, dated 2014)
pEC50: −log10 of the molar value. Read-outs that look alike come from different tables or passages of the source.

Experiments:
[1] = system: JGA (renin-producing JG cells); test: In vitro microperfused afferent arteriole-glomerulus (JGA) renin release, quinacrine fluorescence confocal imaging; design: species or system rabbit; conditions: for effect on high glucose level-induced renin release and afferent arteriole diameter increase (FIG. 1C): high glucose 25.5 mM; for renin release (change in quinacrine fluorescence intensity [F0-F] normalized to baseline [F0]): agent alone in afferent arteriole perfusate, within 30 minutes, glucose 25.5 mM, equimolar mannitol, α-ketoglutarate 5 mM, otherwise normal glucose 5.5 mM; for pEC50: dose-response, FIG. 2C
Description: (A and B) Real-time confocal fluorescence imaging of renin content (quinacrine, light gray) and vascular diameter (cell membranes are labeled with R-18, dark gray) in the in vitro microperfused terminal afferent arteriole (AA) with attached glomerulus (G) freshly isolated from rabbit kidney. […] Scale bar: 20 μm.
(A) Overview of the TCA cycle and sites of inhibition with fluorocitrate (F: 100 μM: blocks aconitase in step 2) and malonate (MAL; 1 mM; blocks succinate dehydrogenase in step 6).
A superficial afferent arteriole with its glomerulus was microdissected from freshly harvested kidney slices. The afferent arteriole was cannulated and perfused using a method similar to those described previously (37). Briefly, dissection media were prepared from DMEM mixture F-12 (Sigma-Aldrich). Fetal bovine serum (Hyclone) was added at a final concentration of 3%. Vessel perfusion and bath fluid was a modified Krebs-Ringer-HCO3 buffer containing 115 mM NaCl, 25 mM NaHCO3, 0.96 mM NaH2PO4, 0.24 mM Na2HPO4, 5 mM KCl, 1.2 mM MgSO4, 2 mM CaCl2, 5.5 mM d-glucose and 100 μM l-arginine. The solutions were aerated with 95% O2 and 5% CO2 for 45 minutes, and their pH was adjusted to 7.4. Each preparation was transferred to a thermoregulated Lucite chamber mounted on the Leica inverted microscope. The preparation was kept in the dissection solution, and also, temperature was kept at 4° C. until cannulation of the arteriole was completed and then was gradually raised to 37° C. for the remainder of the experiment. In some experiments, the endothelium was mechanically removed from the vessel wall with the help of the perfusion pipette and by perfusing the control solution under the endothelium (between the endothelium and smooth muscle). […] The bath was continuously aerated with 95% O2 and 5% CO2. The acidotropic fluorophore quinacrine (Sigma-Aldrich), which is an intravital fluorescent dye selective for dense-core secretory granules, was used for labeling the renin granules (12, 13, 15). The membrane staining octadecyl rhodamine B chloride R18 and the nuclear stain Hoechst 33342 were used to visualize the glomerulus with its attached afferent arteriole. For ratiometric Ca2+ imaging, the fluo-4/fura red pair was used and calibrated as described before (37). DAF-FM was used to monitor changes in NO production as described (38). All fluorophores were from Invitrogen.

GENCs [2] = test: GENC [Ca2+]i, fura-2 spectrofluorometry; format: cell-based, mouse; conditions: for GENC intracellular Ca2+ [Ca2+]i level: high glucose 25.5 mM, succinate 5 mM, malonate 1 mM, fluorocitrate 100 p.M, normal glucose baseline 133±14 nM
HEK cells = conditions: saturating doses of succinate
Description: (§1) FIG. 5: Localization of GPR91 in GENCs. […] C, control mix with no cDNA; WK, whole kidney from WT GPR91^+/+ or KO GPR91^−/− mice. […] JGC, renin-producing JG cells. (B-E) Localization of GPR91 protein in rat kidney with immunohistochemistry. […] One region of the glomerulus (indicated by a rectangle) is magnified in C and D for high-resolution colocalization studies. […] DIC background is merged with fluorescence to show glomerular morphology. (E) Negative control using no GPR91 primary antibody. Nuclei are medium gray. Scale bar: 10 μm (B-E).

JG cells = conditions: saturating doses of succinate
Description: as §1

VSMCs = conditions: saturating doses of succinate
Description: as §1

vascular endothelium = test: Endothelial [Ca2+]i (fluo-4/fura red) and NO production (DAF-FM) in microperfused afferent arteriole-glomerulus; design: species or system mouse; conditions: glucose 5.5 to 25.5 mM or succinate 5 mM in arteriolar perfusate
Description: FIG. 6: GPR91 signaling in the vascular endothelium. […] Scale bar: 20 μm. […] KO (^−/−); n=6 each. […] A superficial afferent arteriole with its glomerulus was microdissected from freshly harvested kidney slices. The afferent arteriole was cannulated and perfused using a method similar to those described previously (37). Briefly, dissection media were prepared from DMEM mixture F-12 (Sigma-Aldrich). […] Vessel perfusion and bath fluid was a modified Krebs-Ringer-HCO3 buffer containing 115 mM NaCl, 25 mM NaHCO3, 0.96 mM NaH2PO4, 0.24 mM Na2HPO4, 5 mM KCl, 1.2 mM MgSO4, 2 mM CaCl2, 5.5 mM d-glucose and 100 μM l-arginine. […] Each preparation was transferred to a thermoregulated Lucite chamber mounted on the Leica inverted microscope. The preparation was kept in the dissection solution, and also, temperature was kept at 4° C. until cannulation of the arteriole was completed and then was gradually raised to 37° C. for the remainder of the experiment. In some experiments, the endothelium was mechanically removed from the vessel wall with the help of the perfusion pipette and by perfusing the control solution under the endothelium (between the endothelium and smooth muscle). […] The acidotropic fluorophore quinacrine (Sigma-Aldrich), which is an intravital fluorescent dye selective for dense-core secretory granules, was used for labeling the renin granules (12, 13, 15). […]

GENCs [3] = conditions: read-out: EC50, PGE2 release from GENCs; dose-response, FIG. 6D
Description: Specially engineered biosensor cells, HEK293 cells, expressing the Ca^2+-coupled PGE2 receptor EP1 were loaded with fluo-4 and positioned next to GENCs in culture. […] Normalized changes in HEK293-EP1 biosensor cell fluo-4 intensity are shown and served as an index of PGE2 release. n=6 for each dose.

[4] = L-NAME 1 mM, indomethacin 50 μM
[5] = agent combined with high glucose 25.5 mM, succinate 5 mM, malonate 1 mM, fluorocitrate 100 μM, L-NAME 1 mM, indomethacin 50 μM
[6] = succinate 5 mM, malonate 1 mM, fluorocitrate 100 μM

SMILES	renin release (change in quinacrine fluorescence intensity normalized to baseline) [1, 5]	renin release (change in quinacrine fluorescence intensity [F0-F] normalized to baseline [F0]) [1, 6]	GENC intracellular Ca2+ [Ca2+]i level (GENCs [2])	also measured
COC(=O)[C@@H](N)CCCNC(=N)N[N+](=O)[O-] [L-NAME]	14±6 Δ%			effect on high glucose level-induced renin release and afferent arteriole diameter increase (FIG. 1C) [1, 4]: inhibited the effects of high glucose level
O=C(O)CC(O)(C(=O)O)C(F)C(=O)O (centres unmarked) [fluorocitrate]	16±2 Δ%	11±2 Δ%	143 ± 11 nM	
COc1ccc2c(c1)c(CC(=O)O)c(C)n2C(=O)c1ccc(Cl)cc1 [indomethacin]	13±2 Δ%			effect on high glucose level-induced renin release and afferent arteriole diameter increase (FIG. 1C) [1, 4]: inhibited the effects of high glucose level
O=C(O)CC(=O)O [malonate]	77±2 Δ%	54±7 Δ%	377 ± 22 nM	pEC50 [1]: 3.44; renin release (change in quinacrine fluorescence intensity normalized to baseline) ([1]; malonate 1 mM plus succinate 5 mM): 83±4 Δ%
OC[C@@H](O)[C@@H](O)[C@H](O)[C@H](O)CO [mannitol]		19±4 Δ%		
O=C(O)CCC(=O)O [succinate]	56±3 Δ%	73±2 Δ%	549 ± 29 nM	pEC50 [1]: 3.47; [Ca2+]i response in GENCs with GPR91 silenced (GENCs [2]; GPR91 siRNA): no [Ca2+]i response; pEC50 (GENCs [2]; succinate added to the superfusate, FIG. 5G, read-out: EC50, GENC Ca2+ signal): 4.16; [Ca2+]i elevation (HEK cells): did not cause [Ca2+]i elevations; [Ca2+]i elevation (JG cells): did not cause [Ca2+]i elevations; [Ca2+]i elevation (VSMCs): did not cause [Ca2+]i elevations; endothelial NO production (vascular endothelium): significant elevations; endothelial [Ca2+]i (vascular endothelium): significant elevations; pEC50 (GENCs [3]): 3.67
O=C(O)CCC(=O)C(=O)O [α-ketoglutarate]		no effect		
